Melting point and IC50 data for 26 compounds are collected here from patent publication US20060258735A1, “1,3-Bis-(substituted-phenyl)-2-propen-1-ones and their use to treat VCAM-1 mediated disorders” (priority 2000, published 2006).

The subject of data set [1] is VCAM-1. In words: In vitro VCAM-1 assay (TNF stimulated vascular endothelial cells). The class given is cell-based. The conditions noted are these: Endothelial cell. Here is the method:
The ability of a compound described herein to inhibit the expression of VCAM-1 in a host can be assessed using any known method, including that described in detail below.
Two to four confluent P150 plates were trypsinized and the cells transferred to a 50 mL conical centrifuge tube. The cells were pelleted, resuspended and counted using the trypan blue exclusion method.
Cells were resuspended at a concentration of 36,000 cells/mL and 1 mL was aliquoted per well.
Cells were split into 24 well tissue culture plates. The cells in each well should be approximately 90-95% confluent by the following day. Cells should not be older than passage 8.
Compounds were initially screened at 50 μM and 10 μM. A 50 mM stock solution for each compound was prepared in culture medium. The stock solution was diluted to 5 mM and 1 mM. When 10 μL of the 5 mM solution was added to the well (1 mL medium/well), the final concentration was 50 μM. Adding 10 μL of the 1 mM solution to the well provides a final concentration of 10 μM.
Compounds which will not go into solution in culture medium were resuspended in DMSO at a concentration of 25 mM. The stock solution was then diluted to the final concentration in culture medium. The old medium was aspirated and 1 mL of the new medium with the compound was added. For example, if the final concentration was 50 μM, the 2 μL of the 25 mM stock was added per mL of culture medium. […] was diluted for lower concentrations.
The compounds were added to the plate (each compound is done in duplicate). One plate was prepared for VCAM expression and one plate was prepared for ICAM expression.
Immediately after the compounds weree added, TNF was added to each well 100 units/mL TNF was usually added to each well. Since each lot of TNF varies in the number of units, each new lot was titrated to determine the optimum concentration. Therefore this concentration changed. If 100 units/mL was being used, TNF was dilted to 10 units/μL and 10 μL added to each well.
The plates were incubated at 37° C., 5% CO2 overnight (approximately 16 hours). The next day the plates were checked under the microscope to see if there were any visual signs of toxicity. Records were made of any cell death, debris, or morphology changes, as well as insoluble compounds (particulate or turbity).
The degree of inhibition of the compounds of formula (I) was determined by the assays.

Data set [2] deals with MCP-1. In words: In vitro MCP-1 activity assay (TNF-α stimulated endothelial cells, MCP-1 immunoassay). The class given is cell-based. The conditions noted are these: Endothelial cell; human endothelial cells stimulated with TNF-α (1 ng/ml), approximately 16 hours, MCP-1 immunoassay of culture media. On the procedure:
Cultured human endothelial cells were seeded in 96-well plates. On the following day cells were stimulated with TNF-α (1 ng/ml) in the presence or absence of compounds dissolved in DMSO. To establish a dose curve and IC50 for each compound, multiple concentrations in 2-fold increments were used. Cells were exposed to TNF-α and compounds for approximately 16 hours. The next day the cells were visually examined via light microscopy to score for visual signs of toxicity. Cell culture media, diluted 1:10, was analyzed by an MCP-1 immunoassay kit (R & D Systems). This assay is a sandwich immunoassay using immobilized anti-MCP-1 antibody in 96-well plate to capture secreted MCP-1 in cell culture media. Captured MCP-1 is subsequently detected with a horse radish peroxidase-conjugated anti-MCP-1 antibody for color development. Results are expressed as IC50 values (the amount of compound (µM) required to achieve a 50% reduction compared to control (cells stimulated with TNF-α only)).

In data set [3] the test system is human aortic smooth muscle cells. The data set can be described thus: In vitro smooth muscle cell activity assay (3H-thymidine incorporation, serum stimulated). As to conditions: human aortic smooth muscle cells stimulated with 5% serum. The class given is cell-based. On the procedure: Cultured human aortic smooth muscle cells were seeded in 24-well plates. When cells reached 80% confluency, they were made quiescent by changing media to 0.2% serum (as compared to 5% serum in normal culture media) for 48 hours. The cells were then stimulated by addition of 5% serum in the presence or absence of compounds dissolved in DMSO. To establish a dose curve and IC50 for each compound, multiple concentrations in 5-fold increments were used. After 20 hr incubation, 3H-thymidine (0.5 μCi/per well) was added to the cells for 4 hours of labeling. Washed cells were then lysed in NaOH and, the amount of 3H-thymidine incorporation was determined. Results are expressed as IC50 values (the amount of compound (µM) required to achieve a 50% reduction compared to control (cells stimulated with 5% serum only)).

Where [4] appears, read: TNF stimulated cells, overnight (approximately 16 hours), read-out: VCAM-1 IC50.
[5] abbreviates: degree of inhibition of VCAM-1 expression, TNF stimulated endothelial cells, approximately 16 hours, read-out: VCAM-1 (µM).

Structures are written as SMILES. Counter-ions that a name gives are not always drawn. Like-named read-outs stand apart in the source and are kept apart here.

The term melting point denotes the temperature of the solid-liquid transition. The compound `COc1ccc(-c2cccs2)cc1C=CC(=O)c1ccc(Cl)c(Cl)c1O.[Na]` displayed a melting point above 260 °C.

The compound `COc1cc(OCC(=O)O)c(C=CC(=O)c2cc(OC)c(OC)c(OC)c2)cc1-c1cc2ccccc2s1` (as salt: sodium) [3-[5-(benzo[b]thien-2-yl)-2-carboxymethoxy-4-methoxyphenyl]-1-(3,4,5-trimethoxyphenyl)-2-propen-1-one] registered a melting point of 255 to 257 °C.

Turning to `COc1cc(C=CC(=O)c2cc(OC)c(OC)c(OC)c2)cc(Br)c1OC` [3-(3-bromo-4,5-dimethoxyphenyl)-1-(3,4,5-trimethoxyphenyl)-2-propen-1-one], the IC50 in data set [1] (setting [4]) is 4 µM.

With `COc1cc(OCC(=O)O)c(C=CC(=O)c2cc(OC)c(OC)c(OC)c2)cc1-c1cc2ccccc2s1` [3-[5-(benzo[b]thien-2-yl)-2-carboxymethoxy-4-methoxyphenyl]-1-(3,4,5-trimethoxyphenyl)-2-propen-1-one], in data set [1] (setting [4]), the IC50 is 8.3 µM.

Compound `COc1cc(C=CC(=O)c2ccc(OC)c(OC)c2OC)cc(-c2cccs2)c1OC` [Example 2, 3-[3,4-dimethoxy-5-(thien-2-yl)phenyl]-1-(2,3,4-trimethoxyphenyl)-2-propen-1-one] displayed a melting point of 94 to 97 °C. This compound displayed an IC50 in data set [2] of 5 µM. Further, the IC50 in data set [3] is 400 nM.

As to `COc1cc(C(=O)C=Cc2cc(OC)c(OC)c(-c3cc4ccccc4s3)c2)cc(OC)c1OC` [Example 4, 3-[5-(benzo[b]thien-2-yl)-3,4-dimethoxyphenyl]-1-(3,4,5-trimethoxyphenyl)-2-propen-1-one], the melting point was in the range of 150 to 151 °C.

The compound `COc1cc(OC)c(-c2cccs2)cc1C=CC(=O)c1cc(OC)c(OC)c(OC)c1` [Example 5, 3-[2,4-dimethoxy-5-(thien-2-yl)phenyl]-1-(3,4,5-trimethoxyphenyl)-2-propen-1-one] gave a melting point of 75 to 80 °C. Moreover, the IC50 in data set [3] was found to be 450 nM.

Regarding `COc1cc(OC)c(-c2cc3ccccc3s2)cc1/C=C/C(=O)c1cc(OC)c(OC)c(OC)c1` [Example 6, 3-[5-(benzo[b]thien-2-yl)-2,4-dimethoxyphenyl]-1-(3,4,5-trimethoxyphenyl)-2-propen-1-one], the IC50 was above 50 µM in data set [2] and 330 nM in data set [3].

Regarding `COc1ccc(-c2cccs2)cc1C=CC(=O)c1cc(OC)c(OC)c(OC)c1` [Example 7, 3-[2-methoxy-5-(thien-2-yl)phenyl]-1-(3,4,5-trimethoxyphenyl)-2-propen-1-one], the figures for the IC50 in data set [2] and in data set [3] were 8 µM and 1530 nM, respectively.

Take `COc1ccc(-c2cccs2)cc1C=CC(=O)c1ccc(OC)c(OC)c1` [Example 9, 3-[2-methoxy-5-(thien-2-yl)phenyl]-1-(3,4-dimethoxyphenyl)-2-propen-1-one]: the IC50 in data set [2] was 10 µM; in data set [3] it was 1150 nM.

Consider `COc1ccc(C(=O)C=Cc2cc(-c3cccs3)ccc2OC)cc1` [Example 11, 3-[2-methoxy-5-(thien-2-yl)phenyl]-1-(4-methoxyphenyl)-2-propen-1-one], for which the IC50 worked out at 10 µM in data set [2] and 4530 nM in data set [3].

Turning to `COc1ccc(-c2cccs2)cc1C=CC(=O)c1cc(OC)c(OCc2cccs2)cc1OC` [Example 17, 3-[2-methoxy-5-(thien-2-yl)phenyl]-1-(2,5-dimethoxy-4-(thien-2-ylmethoxy)phenyl)-2-propen-1-one], the melting point lay within 54 to 73 °C.

Turning to `COc1ccc(-c2cccs2)cc1C=CC(=O)c1ccc(I)cc1OC` [Example 18, 3-[2-methoxy-5-(thien-2-yl)phenyl]-1-(4-iodo-2-methoxyphenyl)-2-propen-1-one], the melting point lay within 150 to 155 °C.

On to `COc1cccc(-c2ccc(C(=O)C=Cc3cc(-c4cccs4)ccc3OC)c(OC)c2)c1` [Example 21, 3-[2-methoxy-5-(thien-2-yl)phenyl]-1-[2-methoxy-4-(3-methoxyphenyl)phenyl]-2-propen-1-one], for which the melting point was in the range of 97 to 107 °C.

`COc1ccc(-c2cccs2)cc1C=CC(=O)c1ccc(F)c(F)c1` [Example 35, 3-[2-methoxy-5-(thien-2-yl)phenyl]-1-(3,4-difluorophenyl)-2-propen-1-one] had a melting point of 100 to 105 °C.

`COc1ccc(-c2cccs2)cc1C=CC(=O)c1ccc(Cl)c(Cl)c1O` [Example 36, 3-[2-methoxy-5-(thien-2-yl)phenyl]-1-(3,4-dichloro-2-hydroxyphenyl)-2-propen-1-one] came in with a melting point of 152 to 163 °C.

`COc1cc(OC)c(-c2cccs2)cc1C=CC(=O)c1ccc(OC)c(OC)c1OC` [Example 41, 3-[2,4-dimethoxy-5-(thien-2-yl)phenyl]-1-(2,3,4-trimethoxyphenyl)-2-propen-1-one]: in data set [3], the IC50 was 1250 nM.

`COc1cc(OC)c(-c2cc3ccccc3s2)cc1C=CC(=O)c1cc(OC)c(OCCN2CCOCC2)c(OC)c1` [Example 43, 3-[5-(benzo[b]thien-2-yl)-2,4-dimethoxyphenyl]-1-[3,5-dimethoxy-4-(2-morpholinoethoxy)phenyl]-2-propen-1-one] came in with a melting point of 111 to 113 °C.

`COc1cc(OC)c(-c2cc3ccccc3s2)cc1C=CC(=O)c1cc(OC)c(OCC(=O)O)c(OC)c1` [Example 44, 3-[5-(benzo[b]thien-2-yl)-2,4-dimethoxyphenyl]-1-(4-carboxymethoxy-3,5-dimethoxyphenyl)-2-propen-1-one] registered a melting point of 145 to 153 °C.

`COc1cc(C=CC(=O)c2ccc(OC)c(OC)c2OC)cc(-c2cc3ccccc3s2)c1OC` [Example 49, 3-[5-(benzo[b]thien-2-yl)-3,4-dimethoxyphenyl]-1-(2,3,4-trimethoxyphenyl)-2-propen-1-one] registered a melting point of 120 to 124 °C.

Consider `COc1cc(C=C2Cc3cc(-c4cccs4)ccc3C2=O)cc(OC)c1OC` [Example 53], for which the melting point fell in the range of 216 to 222 °C. Also, the IC50 in data set [1] (setting [5]) is above 50 µM.

On to `COc1cc2c(cc1OC)C(=O)C(=Cc1cc(OC)c(OC)c(-c3cccs3)c1)CC2` [Example 54], for which the melting point lay in the range of 192 to 205 °C. Further, in data set [1] (setting [5]), the IC50 was found to be 2 µM.

Turning to `COc1ccc(-c2cccs2)cc1C=C1Cc2cc(OC)c(OC)cc2C1=O` [Example 55], the melting point fell in the range of 164 to 172 °C. The IC50 in data set [1] (setting [5]) was above 50 µM.

Take `COc1ccc(-c2cccs2)cc1/C=C/C(=O)c1ccc(-c2cccs2)cc1OC` [Example 58]: the melting point is 30 to 50 °C.

As to `COc1cc(OC)c(-c2cc3ccccc3s2)cc1C=CC(=O)c1cc(OC)c(OCC(=O)[O-])c(OC)c1.[Na+]` [Example 61, 3-[5-(Benzo[b]thien-2-yl)-2,4-dimethoxyphenyl]-1-(4-carboxymethoxy-3,5-dimethoxyphenyl)-2-propen-1-one, sodium salt], the melting point is 191 to 196 °C (dec.). Besides, the IC50 in data set [3] turned out to be 450 nM.

Regarding `COc1cc(OCC(=O)O)c(/C=C/C(=O)c2cc(OC)c(OC)c(OC)c2)cc1-c1cc2ccccc2s1` [Example 62, 3-[5-(Benzo[b]thien-2-yl)-2-carboxymethoxy-4-methoxyphenyl]-1-(3,4,5-trimethoxyphenyl)-2-propen-1-one, sodium salt], in data set [3], the IC50 was found to be 1250 nM.
